According to patent publication US8148070B2, “Genetic polymorphisms associated with coronary events and drug response, methods of detection and uses thereof” (Celera Corporation, priority 2007, dated 2012):

Tested on: PROVE-IT patients
Experiment: PROVE-IT (PROVE IT-TIMI 22) genetic study: high-dose atorvastatin vs standard-dose pravastatin, death or major cardiovascular events by KIF6 719Arg carrier status
Format: in vivo, human
Experimental: Patients were followed for 18 to 36 months, with an average follow-up of 24 months.
Of the 1,724 patients who met the criteria listed above, 1344 (78.0%) were male. […] This study was approved by institutional review boards of the Brigham and Women's Hospital and all participating centers.
KIF6 genotypes were determined using allele—specific real-time PCR as previously described. Cox proportional hazard models (Wald tests) were used to assess the effect of atorvastatin-treatment on incident CHD in the KIF6 719Arg carriers and noncarriers. Continuous variables tested were age, baseline LDL-C, and baseline HDL-C levels. Categorical variables tested were smoking (current versus non-current), hypertension, and baseline diabetes. All reported p values are two-sided.

CC(C)c1c(C(=O)Nc2ccccc2)c(-c2ccccc2)c(-c2ccc(F)cc2)n1CC[C@@H](O)C[C@@H](O)CC(=O)O [Atorvastatin, atorvastatin]
HR, Model 1 (CHD, atorvastatin vs pravastatin) (ArgArg + ArgTrp (carriers), adjusted for sex, age, smoking, hypertension, diabetes, LDL-C, HDL-C, antibiotic): 0.56 | HR, Unadjusted (CHD, atorvastatin vs pravastatin) (ArgArg + ArgTrp, 80 mg atorvastatin per day vs 40 mg pravastatin per day (ref)): 0.57 | On-trial CHD (ArgArg + ArgTrp, totals 509 (atorvastatin), 502 (pravastatin)): 76 Number of patients | HR, Model 1 (CHD, atorvastatin vs pravastatin) (TrpTrp (noncarriers), adjusted): 0.97 | HR, Unadjusted (CHD, atorvastatin vs pravastatin) (TrpTrp (noncarriers), pravastatin = ref): 0.99 | On-trial CHD (TrpTrp, totals 359 (atorvastatin), 352 (pravastatin)): 81 Number of patients | unadjusted hazard ratio at 30 days (carriers of the KIF6 719Arg allele, 30 days after randomization, atorvastatin vs pravastatin): 0.18 | reduction of relative risk of coronary events (carriers, high-dose atorvastatin vs standard-dose pravastatin): 44% | benefit of intensive therapy compared with moderate therapy (noncarriers, at any time point): no significant benefit
